In patent US20130116291A1, “ASSOCIATION OF XANTHINE OXIDASE INHIBITORS AND STATINS AND USE THEREOF” (Menarini International Operations Luxembourg S.A., priority 2010, published 2013):

System: Wistar rats subjected to a cholesterol-rich (2%) diet
Experiment: Hypocholesterolemic activity in rats on a cholesterol-rich diet (plasma total cholesterol)
Type: in vivo, rat
Settings: for Diminution of plasma total cholesterol in rats: cholesterol-rich (2%) diet
Protocol: Plasma levels of total cholesterol were measured with a standard colorimetric enzymatic method. […] Plasma levels of total cholesterol were determined at one-week intervals. Blood was collected from a tail vein.

Compound | Reduction of the cholesterolemia values (in words) (doses of 5 and 10 mg/kg, starting from the first week of treatment) | Maximum reduction of the cholesterolemia values (highest dose (10 mg/kg, as calcium salt, per os daily), peak at 2 weeks, constant in the successive weeks) | Diminution of plasma total cholesterol in rats (1 mg/Kg orally by gavage once per day for 4 weeks) | Diminution of plasma total cholesterol in rats (5 mg/Kg orally by gavage once per day for 4 weeks) | Diminution of plasma total cholesterol in rats ([…] orally by gavage once per day for 4 weeks) | Effect on cholesterol levels in the 4 weeks of observation (highest dose, 5 mg/kg per day, per os, Wistar rats, cholesterol-rich diet)
CC(C)c1c(C(=O)Nc2ccccc2)c(-c2ccccc2)c(-c2ccc(F)cc2)n1CC[C@@H](O)C[C@@H](O)CC(=O)O [Atorvastatin, atorvastatin] | significant and dose-dependent reduction | 80% |  |  |  | 
Cc1nc(-c2ccc(OCC(C)C)c(C#N)c2)sc1C(=O)O [Febuxostat, febuxostat] |  |  | No diminution | No diminution | No diminution | did not significantly modify
